The supplement of paper PMC10307832

What was measured:
Assay in all cases: relative viability (nuclei count vs DMSO), 5 days (fraction); higher = more cells survive
AZD5582 + Dasatinib = compound: C[C@@H](C(=O)N[C@@H](C1CCCCC1)C(=O)N2CCC[C@H]2C(=O)N[C@@H]3[C@@H](CC4=CC=CC=C34)OCC#CC#CCO[C@@H]5CC6=CC=CC=C6[C@@H]5NC(=O)[C@@H]7CCCN7C(=O)[C@H](C8CCCCC8)NC(=O)[C@H](C)NC)NC [AZD5582] + Cc1nc(Nc2ncc(C(=O)Nc3c(C)cccc3Cl)s2)cc(N2CCN(CCO)CC2)n1 [Dasatinib] (partner 0.075 µM)
Outline: (§1)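 Relative viability was taken as the ratio of nuclei in treated wells to nuclei in vehicle wells. Lung cancer cell lines in 1536-well plates received compounds by pin tool one day after seeding, either one drug alone or a fixed anchor-drug dose plus five library-drug doses (not always all listed) in √10 steps. Nuclei were counted on 4× images after 5 days of treatment, and values are medians of duplicate plates.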

AZD5582 + Pemetrexed = compound: C[C@@H](C(=O)N[C@@H](C1CCCCC1)C(=O)N2CCC[C@H]2C(=O)N[C@@H]3[C@@H](CC4=CC=CC=C34)OCC#CC#CCO[C@@H]5CC6=CC=CC=C6[C@@H]5NC(=O)[C@@H]7CCCN7C(=O)[C@H](C8CCCCC8)NC(=O)[C@H](C)NC)NC [AZD5582] + Nc1nc2[nH]cc(CCc3ccc(C(=O)N[C@@H](CCC(=O)O)C(=O)O)cc3)c2c(=O)[nH]1 [Pemetrexed] (partner 0.2 µM)
Outline: as §1

AZD5582 + Linsitinib = compound: C[C@@H](C(=O)N[C@@H](C1CCCCC1)C(=O)N2CCC[C@H]2C(=O)N[C@@H]3[C@@H](CC4=CC=CC=C34)OCC#CC#CCO[C@@H]5CC6=CC=CC=C6[C@@H]5NC(=O)[C@@H]7CCCN7C(=O)[C@H](C8CCCCC8)NC(=O)[C@H](C)NC)NC [AZD5582] + C[C@]1(O)C[C@@H](c2nc(-c3ccc4ccc(-c5ccccc5)nc4c3)c3c(N)nccn32)C1 [Linsitinib] (partner 1 µM)
Outline: as §1

Temozolomide + Lapatinib = compound: Cn1nnc2c(C(N)=O)ncn2c1=O [Temozolomide] + CS(=O)(=O)CCNCc1ccc(-c2ccc3ncnc(Nc4ccc(OCc5cccc(F)c5)c(Cl)c4)c3c2)o1 [Lapatinib] (partner 2 µM)
Outline: as §1

Cell Line	relative viability (AZD5582 + Dasatinib; first compound 0.001581 µM)	relative viability (AZD5582 + Dasatinib; first compound 0.005 µM)	relative viability (AZD5582 + Dasatinib; first compound 0.01581 µM)	relative viability (AZD5582 + Dasatinib; first compound 0.05 µM)	relative viability (AZD5582 + Pemetrexed; first compound 0.001581 µM)	relative viability (AZD5582 + Pemetrexed; first compound 0.005 µM)	relative viability (AZD5582 + Pemetrexed; first compound 0.01581 µM)	relative viability (AZD5582 + Pemetrexed; first compound 0.05 µM)	relative viability (AZD5582 + Linsitinib; first compound 0.001581 µM)	relative viability (AZD5582 + Linsitinib; first compound 0.005 µM)	relative viability (AZD5582 + Linsitinib; first compound 0.01581 µM)	relative viability (AZD5582 + Linsitinib; first compound 0.05 µM)	relative viability (Temozolomide + Lapatinib; first compound 0.2 µM)	relative viability (Temozolomide + Lapatinib; first compound 0.6325 µM)	relative viability (Temozolomide + Lapatinib; first compound 2 µM)	relative viability (Temozolomide + Lapatinib; first compound 6.325 µM)	relative viability (Temozolomide + Lapatinib; first compound 20 µM)
SW 1573	0.56	0.732	0.573	0.566	0.805	0.774	0.954	0.821	0.918	0.834	0.801	0.916	1.13	1.17	1.04	0.897	1.02
COR-L23	0.432	0.647	0.477	0.53	0.201	0.206	0.191	0.196	0.937	0.957	0.913	1.16	1.25	1.03	1.12	1.02	0.948
NCI-H23	0.605	0.644	0.539	0.269	0.578	0.514	0.55	0.455	0.621	0.421	0.529	0.418	1.22	1.04	1.15	0.969	0.912
NCI-H1944	0.244	0.228	0.227	0.238	0.455	0.556	0.521	0.62	1.15	1.4	1.21	1.44	0.835	0.831	0.871	0.843	0.799
NCI-H322M	0.314	0.285	–	0.269	0.705	0.732	0.659	0.785	0.871	1.13	0.887	1.02	–	0.568	0.574	0.599	0.535
EMC-BAC-2	0.332	0.327	0.31	0.241	0.417	0.406	0.426	0.46	0.768	0.871	0.831	0.564	0.914	0.871	0.898	0.856	0.84
NCI-H3122	0.729	0.707	0.802	0.185	0.165	0.152	0.197	0.116	1.02	1.03	0.967	0.313	1.01	1.03	1.09	0.968	1.04
NCI-H520	0.202	0.227	0.206	0.178	0.66	0.755	0.699	0.691	0.808	0.948	0.967	0.923	0.927	0.87	1	0.903	0.993
HARA	0.26	0.299	0.294	0.124	0.22	0.213	0.214	0.231	1.01	0.897	0.951	0.867	0.777	0.721	0.975	0.658	0.732
NCI-H358	0.158	0.193	0.265	0.166	0.178	0.171	0.179	0.17	0.817	0.998	0.899	0.847	0.538	0.572	0.475	0.439	0.419
NCI-H2347	0.304	0.663	0.341	0.303	0.369	0.441	0.41	0.402	0.914	1.08	0.972	0.952	1.18	1.01	0.93	0.781	0.908
UMC-11	0.424	0.455	0.447	0.414	0.73	0.848	0.755	0.864	0.931	1.07	0.96	1.11	1.09	1.06	1.09	0.894	0.685
NCI-H2009	0.297	0.382	0.268	0.307	1	1.01	1.03	1.08	1.2	1.21	1.2	1.16	1.12	0.739	0.973	0.911	1.01
NCI-H1437	0.289	0.452	0.387	0.414	0.337	0.294	0.263	0.326	0.862	0.95	0.976	1.01	0.8	0.817	0.822	0.875	0.975
NCI-H647	0.175	0.187	0.119	0.207	0.126	0.14	0.193	0.124	1.1	1.01	1.25	0.934	1.41	1.16	1.27	0.891	0.275
NCI-H1395	0.437	0.458	0.354	0.46	0.852	0.964	–	1.13	1.05	1.03	–	1.11	1.07	1.19	1.5	0.903	0.968
NCI-H1915	0.324	0.339	0.267	0.328	0.437	0.428	0.506	0.497	1.08	1.13	1.11	0.905	0.995	0.935	0.876	0.693	0.376
BEN	0.329	0.344	0.289	0.304	0.663	0.723	0.925	0.759	0.718	1.01	0.91	1.09	0.641	0.692	0.66	0.633	0.467
LC-2-ad	0.629	0.774	0.461	0.531	0.283	0.272	0.28	0.278	0.916	0.938	0.911	0.97	0.961	1.02	0.962	0.964	0.895
LXF-289	0.228	0.236	0.154	0.13	0.798	0.815	0.872	0.797	0.924	0.936	0.959	0.998	0.939	0.934	0.919	0.847	0.861
